This note sets out measurements from PMC10197133, “Synthesis, Computational Insights, and Evaluation of Novel Sigma Receptors Ligands” (ACS Chemical Neuroscience, 2023).

Entries after “also recorded” stand apart in the source; their conditions may differ.

One experiment has as its target T1, S2R (Rattus norvegicus, UniProt Q5U3Y7).
T1 construct: from tissue; host or cells: rat liver homogenate (male Sprague-Dawley)
T1 sequence (Q5U3Y7 1-176): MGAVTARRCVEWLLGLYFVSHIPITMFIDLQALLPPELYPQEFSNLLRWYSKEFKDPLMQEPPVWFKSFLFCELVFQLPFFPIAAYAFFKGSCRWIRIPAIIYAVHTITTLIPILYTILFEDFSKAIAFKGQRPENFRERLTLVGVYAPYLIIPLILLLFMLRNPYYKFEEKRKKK
Description: S2R radioligand binding assay, [3H]DTG with (+)-pentazocine as S1R masking agent, liver homogenates. Set-up: species or system male Sprague-Dawley rats. The note with it: read-out: Ki (nM) ± SD S2R. Here is the method: (§1) The Ki-values were calculated with the program GraphPad Prism 7.0 (GraphPad Software, San Diego, California). The Ki-values are given as mean value ± SD from at least two independent experiments performed in duplicate.

Experiment [1] deals with T2, S1R (Rattus norvegicus, UniProt Q9R0C9). Description: S1R radioligand binding assay, [3H](+)-pentazocine, liver homogenates. Set-up: from tissue; host or cells: rat liver homogenate (male Sprague-Dawley); species or system male Sprague-Dawley rats. The note with it: for KiS2R/KiS1R (preference for S1R over S2R): ratio of S2R Ki to S1R Ki; for Ki: read-out: Ki (nM) ± SD S1R. The method, then:
as §1

Experiment [2] has as its target T2, S1R. Description: S1R functional assay: S1R radioligand binding with or without phenytoin. Set-up: incubating 200 μL of membrane preparation with 50 μL of 20 nM; from tissue; host or cells: membrane preparation. To be noted: for ratio Ki (nM) control/+ phenythoin: >1 agonist, ≤1 antagonist; for S1R functional profile in vitro (phenytoin assay): concluded from Ki ratio control/with phenytoin. Here is the method: In order to further asses the functional profile of compounds 4b, 5b, and 8f, the well-established phenytoin-based functional assay was carried out.[52] Previous studies have shown that phenytoin, a low-potent allosteric modulator for the S1R, differentially modulates the affinity of S1R ligands depending on their agonist versus antagonist functionality.
The functionality of compounds 4b, 5b, and 8f on S1R was determined using the same radiolabeled binding assay for the S1R in the presence of phenytoin. […] The final volume was 0.5 mL.

In experiment [3] the test system is capsaicin-induced mechanical hypersensitivity in mice. Description: Capsaicin-induced secondary mechanical hypersensitivity (allodynia). It counts as in vivo, female CD1 mice. The note with it: for antiallodynic effect when associated with the S1R agonist PRE-084: PRE-084 32 mg/kg s.c. 5 min before, BD-1063 40 mg/kg, 8f and 5b 20 mg/kg s.c.; for antiallodynic effect, compound administered alone / dose reaching full reversal of mechanical hypersensitivity (maximum antiallodynic effect): s.c.; for antiallodynic effect, compound administered alone: 30 min before capsaicin 1 μg i.pl., paw withdrawal latency at 0.5 g force, 4b 5–20 mg/kg, PRE-084 32 mg/kg; for dose reaching full reversal of mechanical hypersensitivity (maximum antiallodynic effect): capsaicin 1 μg i.pl., mice. The method, then: We used capsaicin-induced secondary hypersensitivity (allodynia) as a pain model. It has been described that the increase in mechanical sensitivity in the area surrounding capsaicin injection (area of secondary allodynia) is due to central sensitization, which is a relevant process for chronic pain development and maintenance.[48]
Experiments were performed in female CD1 mice (Charles River, Barcelona, Spain) weighing 25–30 g. The mice were acclimated in our animal facilities for at least 1 week before testing and housed in a room under controlled environmental conditions: 12/12 h day/night cycle, air replacement every 20 min, and regulated temperature (22 ± 2 °C). The animals were fed a standard laboratory diet (Harlan Teklad Research Diet, Madison, Wisconsin) and tap water ad libitum until the beginning of the experiments. Testing was always performed from 9.00 to 15.00 h and randomly throughout the oestrous cycle. Animal care was made in accordance with institutional (Research Ethics Committee of the University of Granada, Spain), regional (Junta de Andalucía, Spain), and international standards (European Communities Council Directive 2010/63).
As selective S1R drugs, we used the S1R antagonist BD-1063 (1-[2-(3,4-dichlorophenyl)ethyl]-4-methylpiperazine dihydrochloride) and the S1R agonist PRE-084 (2-(4-morpholinethyl)-1-phenyl cyclohexane carboxylate hydrochloride) (both provided by Tocris Cookson, Bristol, U.K.).[57] The standard or experimental compounds were dissolved in 5% DMSO (Merck KGaA, Darmstadt, Germany) in physiological sterile saline (0.9% NaCl). They were prepared immediately before the start of the experiments and injected s.c. in a volume of 5 mL/kg into the interscapular area.
To test for the antiallodynic effects of BD-1063, 4b, 5b, or 8f, they were administered 30 min before the injection of capsaicin, used as the chemical algogen. To test the effects of PRE-084 or 4b on the antiallodynia induced by BD-1063, 8f, or 5b, the former were administered 5 min before the latter. When the effect of the association of several drugs was assessed, each injection was performed in different areas of the interscapular zone to avoid mixture of the drug solutions and any physicochemical interaction between them.
Capsaicin (Sigma-Aldrich Química S.A.) was dissolved in 1% DMSO in physiological sterile saline to a concentration of 0.05 μg/μL (i.e., 1 μg per mouse). Capsaicin solution was injected intraplantarly (i.pl.) into the right hind paw proximate to the heel, in a volume of 20 μL using a 1710 TLL Hamilton microsyringe (Teknokroma, Barcelona, Spain) with a 30^1/2-gauge needle. Control animals were injected with the same volume of the vehicle of capsaicin.
Animals were placed for 2 h in individual black-walled test compartments, which were situated on an elevated mesh-bottom platform with a 0.5-cm^2 grid to provide access to the ventral surface of the hind paws. Punctate mechanical stimulation was applied with a Dynamic Plantar Aesthesiometer (Ugo Basile, Varese, Italy) 15 min after capsaicin or saline administration (i.e., 45 min after the injection of the experimental drug). Briefly, a nonflexible filament (0.5 mm diameter) was electronically driven into the ventral side of the right hind paw (which was previously injected with capsaicin or vehicle) at least 5 mm away from the site of the injection toward the fingers. The intensity of the stimulation was fixed at 0.5 g force, as described previously.[49],[50] When a paw withdrawal response occurred, the stimulus was automatically terminated and the response latency was recorded. The filament was applied three times at intervals of 0.5 min, and the mean value of the three trials was considered the withdrawal latency time of the animal.

Where [4] appears, read: with phenytoin (20 μL of 25 mM in 0.5 mL), 120 min at 37 °C, read-out: Ki (nM) + phenythoin.
Setting [5] is: without phenytoin, read-out: Ki (nM) control.

T2 sequence (Q9R0C9 whole entry): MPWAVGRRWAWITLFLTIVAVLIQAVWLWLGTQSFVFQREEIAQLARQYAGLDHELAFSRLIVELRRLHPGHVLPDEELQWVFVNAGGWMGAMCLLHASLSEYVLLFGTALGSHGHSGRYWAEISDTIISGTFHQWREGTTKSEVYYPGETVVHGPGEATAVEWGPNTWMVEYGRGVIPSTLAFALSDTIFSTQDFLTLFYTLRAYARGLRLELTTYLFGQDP

The term Ki denotes a dissociation constant, usually derived from enzyme kinetics or from competition with a known ligand. In the case of `c1ccc(CCN2CCC3(CC2)CN(CCc2ccccc2)C3)cc1` [4c, 2,7-Diphenethyl-2,7-diazaspiro[3.5]nonane], on S2R, the Ki is 22 ± 2.5 nM. Besides, at S1R [1], the “KiS2R/KiS1R (preference for S1R over S2R)” value is listed as 6.3 and the Ki turned out to be 3.5 ± 0.3 nM.
Regarding `c1ccc(CCN2CC3CCCN(CCc4ccccc4)C3C2)cc1` (stereo not drawn) [8d, 1,6-Diphenethyloctahydro-1H-pyrrolo[3,4-b]pyridine], the Ki at S2R amounted to 114 ± 15 nM. On S1R [1], the “KiS2R/KiS1R (preference for S1R over S2R)” value was determined as 0.07 and the Ki came to 1730 ± 403 nM.
As to `c1ccc(CCN2CCCC3CN(c4ccccc4)CC32)cc1` (stereo not drawn) [8b, 1-Phenethyl-6-phenyloctahydro-1H-pyrrolo[3,4-b]pyridine], the values for the Ki on S2R and on S1R [1] were 279 ± 83 nM and 505 ± 88 nM, respectively. In addition, on S1R [1], the “KiS2R/KiS1R (preference for S1R over S2R)” value is listed as 0.6.
In the same order, the values of `c1ccc(CCCN2CC3(CCN(CCc4ccccc4)CC3)C2)cc1` [4f, 7-Phenethyl-2-(3-phenylpropyl)-2,7-diazaspiro[3.5]nonane] are 149 ± 27 nM, 126 ± 22 nM and 1.2.
In the same order, the values of `c1ccc(CCCN2CCCC3CN(CCc4ccccc4)CC32)cc1` (stereo not drawn) [8g, 6-Phenethyl-1-(3-phenylpropyl)octahydro-1H-pyrrolo[3,4-b]pyridine] are 1030 ± 200 nM, 710 ± 150 nM and 1.4.
Consider `O=C(c1ccccc1)N1CCC2(CC1)CN(CCc1ccccc1)C2` [5a, (2-Phenethyl-2,7-diazaspiro[3.5]nonan-7-yl)(phenyl)methanone], for which the Ki at S2R is 255 ± 62 nM. Further, on S1R [1], the “KiS2R/KiS1R (preference for S1R over S2R)” value worked out at 6.8 and the inhibitory constant (Ki) was found to be 37 ± 9.6 nM.
For the compound `O=C(Cc1ccccc1)N1CCC2(CC1)CN(CCc1ccccc1)C2` [5b, 1-(2-Phenethyl-2,7-diazaspiro[3.5]nonan-7-yl)-2-phenylethan-1-one], at S2R, the inhibition constant (Ki) came to 102 ± 26 nM. Further, at S1R [1], the “KiS2R/KiS1R (preference for S1R over S2R)” value is on record as 7.8 and the inhibition constant Ki stood at 13 ± 2.5 nM. Besides, on S1R [2], the “ratio Ki (nM) control/+ phenythoin” value was found to be 0.9 and the “S1R functional profile in vitro (phenytoin assay)” value was “antagonists for the S1R”. Moreover, the inhibition constant (Ki) on S1R [2] (setting [4]) came out at 14 nM. The inhibitory constant (Ki) on S1R [2] (setting [5]) turned out to be 12 nM. Moreover, in experiment [3], the “antiallodynic effect when associated with the S1R agonist PRE-084” value is “abolish the antiallodynic effect; also recorded: completely reversed their antiallodynic action”; the “antiallodynic effect, compound administered alone” value is listed as “mimicked the effect of the known S1R antagonist”; the “dose reaching full reversal of mechanical hypersensitivity (maximum antiallodynic effect)” value was 20 mg/kg. Moreover, in experiment [3] (concluded from the capsaicin model), the “S1R functional profile in vivo” value is listed as “S1R antagonistic in vivo effect”.
For the compound `CN1CCN(CCc2ccc(Cl)c(Cl)c2)CC1.Cl.Cl` [BD-1063, 1-[2-(3,4-dichlorophenyl)ethyl]-4-methylpiperazine dihydrochloride, reference compound], on S1R [2], the “ratio Ki (nM) control/+ phenythoin” value was determined as 0.7. For the same compound, the Ki at S1R [2] (setting [4]) was determined as 10 nM. The inhibitory constant (Ki) on S1R [2] (setting [5]) amounted to 6.7 nM. In experiment [3], the “antiallodynic effect when associated with the S1R agonist PRE-084” value is given as “abolish the antiallodynic effect”; the “antiallodynic effect, compound administered alone” value is “full and dose-dependent reduction of mechanical hypersensitivity”; the “dose reaching full reversal of mechanical hypersensitivity (maximum antiallodynic effect)” value was 40 mg/kg.
Regarding `c1ccc(CCN2CC3(CCN(c4ccccc4)CC3)C2)cc1` [4a, 2-Phenethyl-7-phenyl-2,7-diazaspiro[3.5]nonane], the inhibition constant (Ki) on S2R turned out to be 77 ± 12 nM. At S1R [1], the “KiS2R/KiS1R (preference for S1R over S2R)” value is 2.8 and the Ki is 28 ± 2 nM.
As for `c1ccc(CCN2CCCC3CN(Cc4ccccc4)CC32)cc1` (stereo not drawn) [8c, 6-Benzyl-1-phenethyloctahydro-1H-pyrrolo[3,4-b]pyridine], the inhibition constant (Ki) at S2R came to 126 ± 19 nM; on S1R [1], 19 ± 2.6 nM.
Turning to `c1ccc(CCCN2CC3(CCN(Cc4ccccc4)CC3)C2)cc1` [4e, 7-Benzyl-2-(3-phenylpropyl)-2,7-diazaspiro[3.5]nonane], the Ki on S2R came to 31 ± 5.4 nM. Also, at S1R [1], the “KiS2R/KiS1R (preference for S1R over S2R)” value came out at 4.3 and the inhibition constant Ki is 7.2 ± 0.5 nM.
Consider `c1ccc(CCCN2CCCC3CN(c4ccccc4)CC32)cc1` (stereo not drawn) [8e, 6-Phenyl-1-(3-phenylpropyl)octahydro-1H-pyrrolo[3,4-b]pyridine], for which the Ki at S2R was determined as 91 ± 5.8 nM. On S1R [1], the “KiS2R/KiS1R (preference for S1R over S2R)” value amounted to 0.8 and the Ki is 108 ± 31 nM.
In the case of `C=CCN1CC[C@]2(C)c3cc(O)ccc3C[C@H]1[C@H]2C` [SKF-10,047, reference compound], at S1R [2], the “ratio Ki (nM) control/+ phenythoin” value worked out at 5.8 and the “S1R functional profile in vitro (phenytoin assay)” value is given as “agonist profile for the S1R”. Also, the Ki on S1R [2] (setting [4]) was determined as 17 nM. The Ki on S1R [2] (setting [5]) was 99 nM.
As for `Cl.O=C(OCCN1CCOCC1)C1(c2ccccc2)CCCCC1` [PRE-084, 2-(4-morpholinethyl)-1-phenyl cyclohexane carboxylate hydrochloride, reference compound], in experiment [3], the “antiallodynic effect, compound administered alone” value is given as “did not modify the response latency”.
`c1ccc(CN2CCCC3CN(c4ccccc4)CC32)cc1` (stereo not drawn) [8a, 1-Benzyl-6-phenyloctahydro-1H-pyrrolo[3,4-b]pyridine]: the inhibition constant (Ki) on S2R is 148 ± 29 nM. On S1R [1], the “KiS2R/KiS1R (preference for S1R over S2R)” value is given as 0.6 and the inhibition constant (Ki) was 254 ± 32 nM.
In the same order, the values of `c1ccc(CCCN2CC3(CCN(c4ccccc4)CC3)C2)cc1` [4d, 7-Phenyl-2-(3-phenylpropyl)-2,7-diazaspiro[3.5]nonane] are 51 ± 5 nM, 1.5 and 34 ± 7.7 nM.
